Source: PubChem BioAssay (NCI)
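In this assay, cells in 96-well plates receive the compound at five concentrations for 48 hours. Endpoints are linearly interpolated between the surrounding concentrations. TGI is the concentration that stops growth completely.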

Legend:
Assay in all cases: NCI anticancer screen, dose series, 48 h
786-0 renal = system: 786-0 renal
A498 renal = system: A498 renal
A549 NSCLC = system: A549 NSCLC
ACHN renal = system: ACHN renal
BT-549 breast = system: BT-549 breast
CAKI-1 renal = system: CAKI-1 renal
COLO 205 colon = system: COLO 205 colon
DU-145 prostate = system: DU-145 prostate
HCT-116 colon = system: HCT-116 colon
HCT-15 colon = system: HCT-15 colon
HL-60(TB) leukemia = system: HL-60(TB) leukemia
HOP-62 NSCLC = system: HOP-62 NSCLC
HS 578T breast = system: HS 578T breast
HT29 colon = system: HT29 colon
IGROV1 ovarian = system: IGROV1 ovarian
K-562 leukemia = system: K-562 leukemia
KM12 colon = system: KM12 colon
LOX IMVI melanoma = system: LOX IMVI melanoma
M14 melanoma = system: M14 melanoma
MALME-3M melanoma = system: MALME-3M melanoma
MCF7 breast = system: MCF7 breast
MDA-MB-231 breast = system: MDA-MB-231 breast
MDA-MB-435 = system: MDA-MB-435
MDA-N = system: MDA-N
MOLT-4 leukemia = system: MOLT-4 leukemia
NCI-H226 lung = system: NCI-H226 lung
NCI-H23 lung = system: NCI-H23 lung
NCI-H460 lung = system: NCI-H460 lung
NCI/ADR-RES ovarian = system: NCI/ADR-RES ovarian
OVCAR-3 ovarian = system: OVCAR-3 ovarian
OVCAR-4 ovarian = system: OVCAR-4 ovarian
OVCAR-5 ovarian = system: OVCAR-5 ovarian
OVCAR-8 ovarian = system: OVCAR-8 ovarian
PC-3 prostate = system: PC-3 prostate
RPMI-8226 leukemia = system: RPMI-8226 leukemia
RXF 393 renal = system: RXF 393 renal
SF-268 CNS = system: SF-268 CNS
SF-295 CNS = system: SF-295 CNS
SF-539 CNS = system: SF-539 CNS
SK-MEL-2 melanoma = system: SK-MEL-2 melanoma
SK-MEL-28 melanoma = system: SK-MEL-28 melanoma
SK-MEL-5 melanoma = system: SK-MEL-5 melanoma
SK-OV-3 ovarian = system: SK-OV-3 ovarian
SN12C renal = system: SN12C renal
SNB-19 CNS = system: SNB-19 CNS
SNB-75 CNS = system: SNB-75 CNS
SR leukemia = system: SR leukemia
SW-620 colon = system: SW-620 colon
T-47D breast = system: T-47D breast
TK-10 renal = system: TK-10 renal
U251 CNS = system: U251 CNS
UACC-257 melanoma = system: UACC-257 melanoma
UACC-62 melanoma = system: UACC-62 melanoma
UO-31 renal = system: UO-31 renal
CCRF-CEM leukemia = system: CCRF-CEM leukemia
EKVX NSCLC = system: EKVX NSCLC
HCC-2998 colon = system: HCC-2998 colon
HOP-92 NSCLC = system: HOP-92 NSCLC
NCI-H522 lung = system: NCI-H522 lung

With `O=C1C=CC2(O[C@H](c3ccccc3)[C@@H](c3ccccc3)O2)C(SC(=O)c2ccccc2)C1` (some centres not stated) the TGI (786-0 renal) was 1.76 µM, the TGI (A498 renal) was 20.6 µM and the TGI (A549 NSCLC) was 17.4 µM. The TGI (ACHN renal) was 3.01 µM, the TGI (BT-549 breast) was 1.65 µM and the TGI (CAKI-1 renal) was 6.53 µM. It also gave a TGI (COLO 205 colon) of 2.69 µM, a TGI (DU-145 prostate) of over 100 µM and a TGI (HCT-116 colon) of 1.53 µM. For the same compound, the TGI (HCT-15 colon) was 2.2 µM, the TGI (HL-60(TB) leukemia) was 7.7 µM and the TGI (HOP-62 NSCLC) was 3.31 µM. The TGI (HS 578T breast) was 5.04 µM, the TGI (HT29 colon) was 3.89 µM and the TGI (IGROV1 ovarian) was 2.86 µM. It also gave a TGI (K-562 leukemia) of over 100 µM, a TGI (KM12 colon) of 6.87 µM and a TGI (LOX IMVI melanoma) of 2.33 µM. For the same compound, the TGI (M14 melanoma) was 3.07 µM, the TGI (MALME-3M melanoma) was 6.54 µM and the TGI (MCF7 breast) was 2.83 µM. It also gave a TGI (MDA-MB-231 breast) of 18 µM, a TGI (MDA-MB-435) of 4.8 µM and a TGI (MDA-N) of 3.32 µM. It also gave a TGI (MOLT-4 leukemia) of over 100 µM, a TGI (NCI-H226 lung) of 4.32 µM and a TGI (NCI-H23 lung) of 3.82 µM. It also gave a TGI (NCI-H460 lung) of 15.6 µM, a TGI (NCI/ADR-RES ovarian) of 3.22 µM and a TGI (OVCAR-3 ovarian) of 4.41 µM. The TGI (OVCAR-4 ovarian) was 5.13 µM, the TGI (OVCAR-5 ovarian) was 3.27 µM and the TGI (OVCAR-8 ovarian) was 0.516 µM. For the same compound, the TGI (PC-3 prostate) was 4.58 µM, the TGI (RPMI-8226 leukemia) was 3.25 µM and the TGI (RXF 393 renal) was 0.726 µM. It also gave a TGI (SF-268 CNS) of 3.02 µM, a TGI (SF-295 CNS) of 6.85 µM and a TGI (SF-539 CNS) of 3.29 µM. The TGI (SK-MEL-2 melanoma) was 3.51 µM, the TGI (SK-MEL-28 melanoma) was 3.55 µM and the TGI (SK-MEL-5 melanoma) was 2.87 µM. It also gave a TGI (SK-OV-3 ovarian) of 7.01 µM, a TGI (SN12C renal) of 6.42 µM and a TGI (SNB-19 CNS) of 5.63 µM. It also gave a TGI (SNB-75 CNS) of 5.34 µM, a TGI (SR leukemia) of over 100 µM and a TGI (SW-620 colon) of 0.811 µM. The TGI (T-47D breast) was 7.89 µM, the TGI (TK-10 renal) was 6.64 µM and the TGI (U251 CNS) was 2.9 µM. For the same compound, the TGI (UACC-257 melanoma) was 3.97 µM, the TGI (UACC-62 melanoma) was 5.84 µM and the TGI (UO-31 renal) was 2.66 µM.

`CCOc1ccc(N=NC2C(=O)N(C(=O)CC(=O)Nc3ccccc3OC)N=C2C)cc1` (configuration not stated) gave a TGI (786-0 renal) of over 57.3 µM, a TGI (A498 renal) of over 31.6 µM and a TGI (A549 NSCLC) of over 100 µM. It also gave a TGI (ACHN renal) of over 100 µM, a TGI (BT-549 breast) of over 48.4 µM and a TGI (CAKI-1 renal) of over 64.7 µM. It also gave a TGI (CCRF-CEM leukemia) of over 100 µM, a TGI (COLO 205 colon) of over 100 µM and a TGI (DU-145 prostate) of over 100 µM. For the same compound, the TGI (EKVX NSCLC) was over 100 µM, the TGI (HCC-2998 colon) was over 60.3 µM and the TGI (HCT-116 colon) was over 100 µM. For the same compound, the TGI (HCT-15 colon) was over 100 µM, the TGI (HL-60(TB) leukemia) was 22.5 µM and the TGI (HOP-62 NSCLC) was over 49.5 µM. It also gave a TGI (HOP-92 NSCLC) of over 50.6 µM, a TGI (HS 578T breast) of over 100 µM and a TGI (HT29 colon) of over 100 µM. It also gave a TGI (IGROV1 ovarian) of over 100 µM, a TGI (K-562 leukemia) of over 100 µM and a TGI (KM12 colon) of over 100 µM. It also gave a TGI (LOX IMVI melanoma) of over 100 µM, a TGI (M14 melanoma) of over 100 µM and a TGI (MALME-3M melanoma) of over 100 µM. For the same compound, the TGI (MCF7 breast) was over 100 µM, the TGI (MDA-MB-231 breast) was over 51.7 µM and the TGI (MDA-MB-435) was 4.12 µM. For the same compound, the TGI (MDA-N) was 6.14 µM, the TGI (MOLT-4 leukemia) was over 100 µM and the TGI (NCI-H226 lung) was over 100 µM. The TGI (NCI-H23 lung) was over 100 µM, the TGI (NCI-H460 lung) was over 42.8 µM and the TGI (NCI-H522 lung) was 55.3 µM. It also gave a TGI (NCI/ADR-RES ovarian) of over 100 µM, a TGI (OVCAR-3 ovarian) of over 100 µM and a TGI (OVCAR-4 ovarian) of over 100 µM. For the same compound, the TGI (OVCAR-5 ovarian) was over 100 µM, the TGI (OVCAR-8 ovarian) was over 100 µM and the TGI (PC-3 prostate) was over 100 µM. It also gave a TGI (RPMI-8226 leukemia) of over 100 µM, a TGI (RXF 393 renal) of 26.3 µM and a TGI (SF-268 CNS) of 97 µM. For the same compound, the TGI (SF-295 CNS) was over 53.8 µM, the TGI (SF-539 CNS) was over 57.9 µM and the TGI (SK-MEL-2 melanoma) was over 58.7 µM. The TGI (SK-MEL-28 melanoma) was over 100 µM, the TGI (SK-MEL-5 melanoma) was over 100 µM and the TGI (SK-OV-3 ovarian) was over 87.4 µM. For the same compound, the TGI (SN12C renal) was over 100 µM, the TGI (SNB-19 CNS) was over 34.8 µM and the TGI (SNB-75 CNS) was 23.6 µM. It also gave a TGI (SW-620 colon) of 52.9 µM, a TGI (T-47D breast) of over 100 µM and a TGI (TK-10 renal) of over 52.3 µM. It also gave a TGI (U251 CNS) of over 63.4 µM, a TGI (UACC-257 melanoma) of over 100 µM and a TGI (UACC-62 melanoma) of over 100 µM. For the same compound, the TGI (UO-31 renal) was over 100 µM.
